Results: patent publication US11731985B2, “Compositions and methods for treating cancer” (Hb Therapeutics Inc., priority 2018, dated 2023)
Read-outs that look alike come from different tables or passages of the source. Where a SMILES comes first, the peptide text is derived from it. The star is where a group is joined. Cbz = O=C(OCc1ccccc1)*

Tests used:
lung cancer PDX (L1102F) = experiment: Patient derived xenograft of lung cancer (L1102F); type: in vivo, mice; details: for PDX growth: CPD24 25 and 50 mg/kg, CPD1 100 mg/kg
Excerpt: (§1) The left two graphs show data for compounds CPD1 and the middle two graphs show data for CPD24 treatment of colon cancer PDX (L1206F). […] The right two graphs show data for compound CPD1 and CPD24 treatment of lung cancer PDX (L1102F). […] The significance of **P<0.01, and ***P<0.001 was statistically analyzed.
(§2) For the therapeutic effects of the compounds, we examined the effects of CPD1 and CPD24 on various types of cancer xenografts in mice. […] NOD/SCID mice bearing intracranial brain xenografts of glioblastoma LN229 cell line were treated with CPD1.

[1] = tested on: NCI-60 panel cancer cell lines; experiment: Cell growth analysis of NCI-60 panel cancer cell lines; type: cell-based, human; details: FIG. 5C
log P = type: physicochemical
Excerpt: (§3) For example, without limitation, pharmaceutical compositions of this compound (CPD1) can comprise a molecular weight 348 g/mol and the log P value 3.7.

[2] = tested on: intracranial glioblastoma LN229 xenografts; experiment: Intracranial brain xenografts of glioblastoma LN229 in NOD/SCID mice, Kaplan Meier survival; type: in vivo; details: intracranial LN229, log rank test
Description: as §2

SUMO1 [3] = experiment: Ubiquitination of Flag-SUMO1 (immunoprecipitation, western blot) in co-transfected LN229 cells; type: cell-based, human; details: LN229 cells co-transfected with Flag-SUMO1-GV and HA-UB-WT
Excerpt: (§4) The non-conjugated Flag-tagged SUMO1 (Flag-SUMO1-GV) and the HA-tagged wild type (WT) UB (HA-UB-WT) were co-transfected in LN229 cells.

[4] = Tolerability across all xenograft mice; type: in vivo; details: over the treatment period
Description: as §2

[5] = tested on: colon cancer PDX (L1206F); experiment: Patient derived xenograft of colon cancer (L1206F); type: in vivo, mice
Excerpt: as §1, §2

LN229 cells = experiment: Cell viability assay, LN229 cells; type: cell-based, human; details: for IC50: read-out: Inhibition of Cancer Cell Growth (IC50)
Description: Each of the compounds was used to treat the cancer LN229 cells and examined first by western and dot blot assays for the degradation of SUMO1 protein and then by cell viability assay for the IC50 values of anticancer activity.
(§5) LN229 cell were treated with a series of dilutions of CPD1 and examined by cell viability assay for cell growth inhibition (FIG. 2B). […] Therefore, CPD1 acts as the degrader of SUMO1 protein and inhibitor of SUMO1 conjugation in cancer cells.

SUMO1 [6] = target: T1, SUMO1 (Homo sapiens, UniProt P63165); experiment: Western and dot blot assays for SUMO1 conjugation and SUMO1 protein levels in LN229 cells; type: cell-based; design: analyzed by western blotting for detection of the conjugate and free form of SUMO1 protein and dot blotting for total levels of SUMO1 protein; endogenous in cells; host or cells: LN229 glioblastoma cells
Description: FIG. 2A illustrates how the glioblastoma LN229 cell line was treated with each of compounds of the National Cancer Institute (NCI) Diversity Set IV library and analyzed by western blot assays using SUMO1, SUMO2/3, UB and β-actin antibodies.
as §5, §4

lung A549 xenografts = experiment: Subcutaneous xenografts of lung A549 cancer cell line in nude mice; type: in vivo
Description: as §2

colon HCT116 xenografts = experiment: Subcutaneous xenografts of colon HCT116 cancer cell line in nude mice; type: in vivo
Description: as §2

[7] = Pharmacokinetics, tissue distribution and toxicity in mice, intraperitoneal administration; type: in vivo
Excerpt: as §3

SUMO1 [8] = target: T1, SUMO1; experiment: Western and dot blot of normal lung epithelial Nuli-1 and lung cancer cells; type: cell-based; design: CPD24 treatment reduces SUMO1 conjugation and total levels of SUMO1 protein in the cancer but not normal cells; endogenous in cells
[9] = Homo sapiens, LN-229, LN229 cells

T1 sequence (P63165 1-97 limits assumed): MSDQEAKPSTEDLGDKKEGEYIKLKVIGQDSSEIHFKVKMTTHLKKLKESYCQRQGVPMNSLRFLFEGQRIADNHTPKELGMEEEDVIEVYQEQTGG

Row | Compound | IC50 (LN229 cells; [9]) | other results
1 | O=C(Nc1ccc(Cl)c([N+](=O)[O-])c1)Nc1nc2ccccc2s1 [Compound 1] | ≤ 5 µM | mouse body weight (lung cancer PDX (L1102F)): no effects of the treatment on mouse body weight; PDX growth (lung cancer PDX (L1102F)): markedly inhibits the PDX growth; cell growth of NCI-60 panel cancer cell lines [1]: significantly inhibits the cell growth of breast, colon, lung, kidney, ovarian, prostate, skin (melanocytic) and blood (leukemic) cancers; logP (log P): 3.7; survival of xenograft mice [2]: increases the survival of xenograft mice; poly-ubiquitination of SUMO1 protein (SUMO1 [3]): results in the poly-ubiquitination of SUMO1 protein; tolerability, clinical signs [4]: well tolerated over the treatment period with no clinical signs of lethargy, ataxia, paralysis, seizure or weight loss; body weight of mice [5]: had no effects on the body weight of mice; tumor growth (tumor sizes) [5]: significantly inhibits the tumor growth of the colon cancer PDXs; conjugated, free form and total levels of SUMO1 protein (SUMO1 [6]; LN229 cells, western and dot blotting): reduces the conjugated, free form and total levels of SUMO1 proteins; selectivity of inhibition of conjugation (SUMO1, SUMO2/3, UB) (SUMO1 [6]; LN229 cells, western blot, FIG. 2A): selectively inhibiting the conjugation of SUMO1 but not SUMO2/3 or UB; xenograft progression (lung A549 xenografts): significantly suppressed xenograft progression; xenograft progression (colon HCT116 xenografts): significantly suppressed xenograft progression; blood brain barrier crossing ([7]; distribution in brain tumors): can cross the blood brain barrier; toxicity to normal tissues, side effects ([7]; mice, intraperitoneal administration): no toxicity to normal tissues or side effects on mice; pharmacokinetics and tissue distribution ([7]; mouse cancer xenografts, intraperitoneal administration): sufficient for degrading SUMO1 protein in mouse cancer xenografts
2 | N#Cc1ccc2nc(NC(=O)Nc3cccc(Cl)c3)sc2c1 [Compound 24, 1-(3-chlorophenyl)-3-(6-cyano-1,3-benzothiazol-2-yl)urea] | ≤ 5 µM | mouse body weight (lung cancer PDX (L1102F)): no effects of the treatment on mouse body weight; PDX growth inhibition, potency compared with CPD1 (lung cancer PDX (L1102F); CPD24 25 and 50 mg/kg versus CPD1 100 mg/kg): more potent; PDX growth (lung cancer PDX (L1102F)): markedly inhibits the PDX growth; SUMO1 conjugation and total SUMO1 protein in normal versus cancer cells (SUMO1 [8]): reduces SUMO1 conjugation and total levels of SUMO1 protein only in cancer cells; poly-ubiquitination of SUMO1 protein (SUMO1 [3]): results in the poly-ubiquitination of SUMO1 protein; tolerability, clinical signs [4]: well tolerated over the treatment period with no clinical signs of lethargy, ataxia, paralysis, seizure or weight loss; body weight of mice [5]: had no effects on the body weight of mice; tumor growth (tumor sizes) [5]: significantly inhibits the tumor growth of the colon cancer PDXs; inhibition of the cell growth, compared with the other representative compounds (LN229 cells; LN229 cells, FIG. 3A): much more potent in inhibition of the cell growth; xenograft progression (lung A549 xenografts): significantly suppressed xenograft progression; xenograft progression (colon HCT116 xenografts): significantly suppressed xenograft progression
3 | N#Cc1ccc(NC(=O)Nc2nc3ccc(Cl)cc3s2)cc1 [Compound 94] | ≤ 5 µM | 
4 | N#Cc1cccc(NC(=O)Nc2nc3ccc(Cl)cc3s2)c1F [Compound 95] | > 20 µM | 
5 | N#Cc1ccc(F)c(NC(=O)Nc2nc3ccc(Cl)cc3s2)c1 [Compound 96] | ≤ 5 µM | 
6 | N#CC1CCc2nc(NC(=O)Nc3cccc(Cl)c3)sc2C1 (stereo not drawn) [Compound 97] | ≤ 20 µM | 
7 | N#Cc1ccc2nc(NC(=O)Nc3cccc(Oc4ccccc4)c3)sc2c1 [Compound 98] | ≤ 5 µM | 
8 | N#Cc1ccc2nc(NC(=O)Nc3ccnc(Cl)c3)sc2c1 [Compound 99] | ≤ 5 µM | 
9 | N#Cc1cccc(NC(=O)Nc2nc3ccc(C(F)(F)F)cc3s2)c1 [Compound 100] | ≤ 5 µM | 
10 | N#Cc1cccc(NC(=O)Nc2nc3c(Cl)cc(Cl)cc3s2)c1 [Compound 101] | ≤ 5 µM | 
11 | N#Cc1cccc(NC(=O)Nc2nc3c(F)cc(F)cc3s2)c1 [Compound 102] | ≤ 5 µM | 
12 | N#Cc1cccc(NC(=O)Nc2nc3ccc(OC(F)(F)F)cc3s2)c1 [Compound 103] | ≤ 5 µM | 
13 | N#Cc1ccc(NC(=O)Nc2nc3ccc(Cl)cc3s2)c(Cl)c1 [Compound 104] | ≤ 5 µM | 
14 | N#Cc1cc(F)cc(NC(=O)Nc2nc3ccc(Cl)cc3s2)c1 [Compound 105] | ≤ 5 µM | 
15 | N#Cc1cc(Br)cc(NC(=O)Nc2nc3ccc(Cl)cc3s2)c1 [Compound 106] | ≤ 20 µM | 
16 | N#Cc1ccc(NC(=O)Nc2nc3ccc(Cl)cc3s2)cc1F [Compound 107] | ≤ 5 µM | 
17 | N#Cc1ccc2nc(NC(=O)Nc3ccc4[nH]c(=O)[nH]c4c3)sc2c1 [Compound 108] | > 20 µM | 

Row | Compound | IC50 (LN229 cells; [9]) | other results
18 | N#Cc1ccc2nc(NC(=O)Nc3cccc4ccccc34)sc2c1 [Compound 109] | > 20 µM | 
19 | N#Cc1ccc2nc(NC(=O)Nc3ccc4ccccc4c3)sc2c1 [Compound 110] | ≤ 20 µM | 
20 | Cn1ncc2ccc(NC(=O)Nc3nc4ccc(C#N)cc4s3)cc21 [Compound 111] | > 20 µM | 
21 | N#Cc1ccc2nc(NC(=O)Nc3cccc(C(=O)OCCOCCN)c3)sc2c1 [Compound 112] | > 20 µM | 
22 | N#Cc1cc(F)cc(NC(=O)Nc2nc3ccc(C(F)(F)F)cc3s2)c1 [Compound 113, 1-(3-cyano-5-fluorophenyl)-3-[6-(trifluoromethyl)-1,3-benzothiazol-2-yl]urea] | ≤ 5 µM | 
23 | CS(=O)(=O)c1ccc2nc(NC(=O)Nc3cccc(C#N)c3)sc2c1 [Compound 114] | ≤ 20 µM | 
24 | N#Cc1cc(Cl)cc(NC(=O)Nc2nc3ccc(C(F)(F)F)cc3s2)c1 [Compound 115] | ≤ 5 µM | 
25 | N#Cc1ccc(NC(=O)Nc2nc3ccc(C(F)(F)F)cc3s2)c(Cl)c1 [Compound 116] | ≤ 5 µM | 
26 | N#Cc1ccc(NC(=O)Nc2nc3ccc(C(F)(F)F)cc3s2)cc1 [Compound 117] | ≤ 5 µM | 
27 | N#Cc1ccc(NC(=O)Nc2nc3ccc(Cl)cc3s2)cc1Cl [Compound 118] | ≤ 5 µM | 
28 | N#Cc1ccc(NC(=O)Nc2nc3ccc(Cl)cc3s2)cc1C(F)(F)F [Compound 119] | ≤ 5 µM | 
29 | CC(C)(C)OC(=O)NCCOCCOc1cccc(NC(=O)Nc2nc3ccc(C#N)cc3s2)c1 [Compound 120] |  | IC50 (LN229 cells; LN229 cells): ≤ 5 µM
30 | N#Cc1ccc2nc(NC(=O)Nc3cccc(OCCOCCN)c3)sc2c1 [Compound 121] |  | IC50 (LN229 cells; LN229 cells): > 20 µM
31 | N#Cc1c(F)ccc(NC(=O)Nc2nc3ccc(Cl)cc3s2)c1F [Compound 122] | ≤ 5 µM | 
32 | N#Cc1ccc(NC(=O)Nc2nc3ccc(Cl)cc3s2)c(F)c1 [Compound 123] | ≤ 20 µM | 
33 | CC(C)C[C@@H](C=O)NC(=O)[C@H](CC(C)C)NC(=O)[C@H](CC(C)C)NC(=O)OCc1ccccc1 [MG132, reference compound] (Cbz-Leu-Leu-Leu-aldehyde) |  | effect of MG132 on CPD1-induced degradation of SUMO1 protein (SUMO1 [6]; LN229 cells treated with CPD1, followed by MG132): prevents CPD1-induced degradation of SUMO1 protein
